From patent US7973147B2, “K04-0144 substance and a process for production thereof” (The Kitasato Institute, priority 2006, dated 2011)
≈ marks a conversion by molar mass, not a printed value. Entries after “also recorded” stand apart in the source; their conditions may differ. Read-outs that look alike come from different tables or passages of the source.

Key:
[1] = system: MRSA (Clinical isolate, the Kitasato Hospital, Japan); experiment: Enhancing action of K04-0144D substance on antibiotic activities, broth microdilution method; format: cell-based, methicillin-resistant Staphylococcus aureus; settings: for MIC: Staphylococcus aureus, MRSA
Solubility in solvent = format: physicochemical
MRSA N315 IR94 HR-1 = experiment: MIC, agar plate dilution method; format: cell-based, methicillin-resistant Staphylococcus aureus; settings: Staphylococcus aureus, 20 h
Procedure: (§1) Assay of minimum inhibitory concentration (MIC) was performed according to the agar plate dilution method (Method of Japan Society of Chemotherapy, CHEMOTHERAPY 29, 76-79, 1981).
(§2) Test organisms used were 27 types of microorganisms including clinical isolates of methicillin-resistant Staphylococcus aureus. Each test organism was cultured in Mueller-Hinton broth (2.1% w/v) (DIFCO) at 37° C. for 20 hours, and the cultured cells were suspended to about 10^6 cell counts/ml in the same medium, then was used as the microbial suspension for inoculation. The prepared microbial suspension was smeared by using the microplanter on MHA medium (Mueller-Hinton broth 2.1% (w/v) and agar 1.5%) containing K04-0144A substance, K04-0144B substance or K04-0144C substance, each of which was subjected to two-fold stepwise dilution from 128 μg/ml. After culturing at 37° C. for 20 hours, MIC was determined by macroscopically confirming the growth of microorganisms. Vancomycin, arbekacin and linezolid were used as a comparative control.

MRSA 92-1191 = experiment: MIC, agar plate dilution method; format: cell-based, methicillin-resistant Staphylococcus aureus; settings: Staphylococcus aureus; MRSA 92-1191; 37° C., 20 hours; read-out: MIC
Procedure: as §1, §2

MRSA 70 = experiment: MIC, agar plate dilution method; format: cell-based, methicillin-resistant Staphylococcus aureus; settings: Staphylococcus aureus
Procedure: as §1, §2

MRSA N315 IR94 = experiment: MIC, agar plate dilution method; format: cell-based, methicillin-resistant Staphylococcus aureus; settings: Staphylococcus aureus, 20 h
Procedure: as §1, §2

S. aureus ISP217 = experiment: MIC, agar plate dilution method; format: cell-based; settings: Staphylococcus aureus; S. aureus ISP217; 37° C., 20 hours; read-out: MIC
Procedure: as §1, §2

S. aureus ISP447 = experiment: MIC, agar plate dilution method; format: cell-based; settings: Staphylococcus aureus; S. aureus ISP447; 37° C., 20 hours; read-out: MIC
Procedure: as §1, §2

S. aureus 8325(pMS97) = experiment: MIC, agar plate dilution method; format: cell-based; settings: Staphylococcus aureus, 20 h
Procedure: as §1, §2

M. morganii IID Kono = experiment: MIC, agar plate dilution method; format: cell-based; settings: Morganella morganii; M. morganii IID Kono; 37° C., 20 hours; read-out: MIC
Procedure: as §1, §2

E. aerogenes NCTC10006 = experiment: MIC, agar plate dilution method; format: cell-based; settings: Klebsiella aerogenes; E. aerogenes NCTC10006; 37° C., 20 hours; read-out: MIC
Procedure: as §1, §2

[2] = system: E. faecium NTCT12203(VanA); experiment: MIC, agar plate dilution method; format: cell-based; settings: Enterococcus faecium; E. faecium NTCT12203(VanA); 37° C., 20 hours; read-out: MIC
Procedure: as §1, §2

A. calcoaceticus IFO2552 = experiment: MIC, agar plate dilution method; format: cell-based; settings: Acinetobacter calcoaceticus; A. calcoaceticus IFO2552; 37° C., 20 hours; read-out: MIC
Procedure: as §1, §2

P. vulgaris OX-19 = experiment: MIC, agar plate dilution method; format: cell-based; settings: Proteus vulgaris, OX19; P. vulgaris OX-19; 37° C., 20 hours; read-out: MIC
Procedure: as §1, §2

P. aeruginosa 46001 = experiment: MIC, agar plate dilution method; format: cell-based; settings: Pseudomonas aeruginosa; P. aeruginosa 46001; 37° C., 20 hours; read-out: MIC
Procedure: as §1, §2

S. aureus Smith = experiment: MIC, agar plate dilution method; format: cell-based; settings: Staphylococcus aureus; S. aureus Smith; 37° C., 20 hours; read-out: MIC
Procedure: as §1, §2

E. cloacae IFO13535 = experiment: MIC, agar plate dilution method; format: cell-based; settings: Enterobacter cloacae; E. cloacae IFO13535; 37° C., 20 hours; read-out: MIC
Procedure: as §1, §2

K. pneumoniae NCTN9632 = experiment: MIC, agar plate dilution method; format: cell-based; settings: Klebsiella pneumoniae; K. pneumoniae NCTN9632; 37° C., 20 hours; read-out: MIC
Procedure: as §1, §2

M. luteus ATCC9341 = experiment: MIC, agar plate dilution method; format: cell-based; settings: Micrococcus luteus; M. luteus ATCC9341; 37° C., 20 hours; read-out: MIC
Procedure: as §1, §2

C. freundii ATCC8090 = experiment: MIC, agar plate dilution method; format: cell-based; settings: Citrobacter freundii; C. freundii ATCC8090; 37° C., 20 hours; read-out: MIC
Procedure: as §1, §2

S. marcescens IFO12648 = experiment: MIC, agar plate dilution method; format: cell-based; settings: Serratia marcescens; S. marcescens IFO12648; 37° C., 20 hours; read-out: MIC
Procedure: as §1, §2

P. aeruginosa E-2 = experiment: MIC, agar plate dilution method; format: cell-based; settings: Pseudomonas aeruginosa, E2; P. aeruginosa E-2; 37° C., 20 hours; read-out: MIC
Procedure: as §1, §2

P. mirabilis IFO3849 = experiment: MIC, agar plate dilution method; format: cell-based; settings: Proteus mirabilis; P. mirabilis IFO3849; 37° C., 20 hours; read-out: MIC
Procedure: as §1, §2

S. aureus FDA209P = experiment: MIC, agar plate dilution method; format: cell-based; settings: Staphylococcus aureus; S. aureus FDA209P; 37° C., 20 hours; read-out: MIC
Procedure: as §1, §2

[3] = system: E. facecalis NTCT12201(VanA); experiment: MIC, agar plate dilution method; format: cell-based; settings: E. facecalis NTCT12201(VanA); 37° C., 20 hours; read-out: MIC
Procedure: as §1, §2

E. coli NIHJ JC-2 = experiment: MIC, agar plate dilution method; format: cell-based; settings: Escherichia coli, NIHJJC2; E. coli NIHJ JC-2; 37° C., 20 hours; read-out: MIC
Procedure: as §1, §2

S. epidermidis IFO12648 = experiment: MIC, agar plate dilution method; format: cell-based; settings: Staphylococcus epidermidis; S. epidermidis IFO12648; 37° C., 20 hours; read-out: MIC
Procedure: as §1, §2

E. faecalis ATCC21212 = experiment: MIC, agar plate dilution method; format: cell-based; settings: Enterococcus faecalis; E. faecalis ATCC21212; 37° C., 20 hours; read-out: MIC
Procedure: as §1, §2

S. aureus 8325(pEP2104) = experiment: MIC, agar plate dilution method; format: cell-based; settings: Staphylococcus aureus, 20 h
Procedure: as §1, §2

SMILES | MIC (MRSA N315 IR94 HR-1) | MIC (MRSA 92-1191) | MIC (MRSA N315 IR94) | MIC (S. aureus ISP217) | MIC (S. aureus ISP447) | MIC (S. aureus 8325(pMS97)) | MIC (M. morganii IID Kono) | MIC (E. aerogenes NCTC10006) | MIC [2] | MIC (A. calcoaceticus IFO2552) | MIC (P. vulgaris OX-19) | MIC (P. aeruginosa 46001) | MIC (S. aureus Smith) | MIC (E. cloacae IFO13535) | MIC (K. pneumoniae NCTN9632) | MIC (M. luteus ATCC9341) | MIC (C. freundii ATCC8090) | MIC (S. marcescens IFO12648) | MIC (P. aeruginosa E-2) | MIC (P. mirabilis IFO3849) | other results
C[C@@H](O)[C@H]1C(=O)N2C(C(=O)O)=C(SCCN=CN)C[C@H]12 [Imipenem, imipenem] |  |  |  |  |  |  |  |  |  |  |  |  |  |  |  |  |  |  |  |  | Ratio (−/+K04-0144D) ([1]; MIC alone / MIC with K04-0144D substance 16 μg/ml): 1024; MIC ([1]; antibiotic alone, without K04-0144D substance, read-out: Minimum Inhibitory Concentration (−)): 32 µg/mL; MIC ([1]; combined use with K04-0144D substance 16 μg/ml, read-out: Minimum Inhibitory Concentration (+)): 0.03 µg/mL
C=C(C/C=C(\C)CCC=C(C)C)CCC(C)(C)/C=C/CC/C(C)=C\COC(COP(=O)(O)OC1OC(C(N)=O)C(C)(O)C(OC(N)=O)C1OC1OC(CO)C(OC2OC(C)C(OC3OC(C(=O)O)C(O)C(O)C3O)C(O)C2NC(C)=O)C(O)C1NC(C)=O)C(=O)O (centres unmarked) [K04-0144B] | 0.125 µg/mL (≈ 0.0943 µM) | 1 µg/mL (≈ 0.755 µM) | 0.125 µg/mL (≈ 0.0943 µM) | 0.5 µg/mL (≈ 0.377 µM) | 0.5 µg/mL (≈ 0.377 µM) | 1 µg/mL (≈ 0.755 µM) | > 16 µg/mL | > 16 µg/mL | > 16 µg/mL | 8 µg/mL (≈ 6.04 µM) | 4 µg/mL (≈ 3.02 µM) | > 16 µg/mL | 2 µg/mL (≈ 1.51 µM) | > 16 µg/mL | > 16 µg/mL | > 16 µg/mL | > 16 µg/mL | > 16 µg/mL | > 16 µg/mL | 16 µg/mL (≈ 12.1 µM) | Solubility in solvent (Solubility in solvent; listed as K04-0144B Substance): Soluble in water, methanol and dimethyl sulfoxide; also recorded: Insoluble in acetone, chloroform and n-hexane; MIC (MRSA 70; MRSA, 20 h): 0.125 µg/mL (≈ 0.0943 µM); MIC (S. aureus FDA209P): 2 µg/mL (≈ 1.51 µM); MIC [3]: 2 µg/mL (≈ 1.51 µM); MIC (E. coli NIHJ JC-2): > 16 µg/mL; MIC (S. epidermidis IFO12648): 8 µg/mL (≈ 6.04 µM); MIC (E. faecalis ATCC21212): 2 µg/mL (≈ 1.51 µM); MIC (S. aureus 8325(pEP2104)): 0.06 µg/mL (≈ 0.0453 µM)
C=C(C/C=C(\C)CCC=C(C)C)CCC(C)(C)/C=C/CC/C(C)=C\COC(COP(=O)(O)OC1OC(C(N)=O)C(C)(O)C(OC(N)=O)C1OC1OC(CO)C(OC2OC(C)C(OC3OC(C(N)=O)C(O)C(O)C3O)C(O)C2NC(C)=O)C(O)C1NC(C)=O)C(=O)O (centres unmarked) [K04-0144C] | ≤ 0.25 µg/mL | 0.5 µg/mL (≈ 0.378 µM) | ≤ 0.25 µg/mL | ≤ 0.25 µg/mL | ≤ 0.25 µg/mL | 0.5 µg/mL (≈ 0.378 µM) | 32 µg/mL (≈ 24.2 µM) | 32 µg/mL (≈ 24.2 µM) | 64 µg/mL (≈ 48.3 µM) | 8 µg/mL (≈ 6.04 µM) | 4 µg/mL (≈ 3.02 µM) | 32 µg/mL (≈ 24.2 µM) | 1 µg/mL (≈ 0.755 µM) | 32 µg/mL (≈ 24.2 µM) | 8 µg/mL (≈ 6.04 µM) | > 128 µg/mL | 64 µg/mL (≈ 48.3 µM) | 32 µg/mL (≈ 24.2 µM) | 32 µg/mL (≈ 24.2 µM) | 8 µg/mL (≈ 6.04 µM) | Solubility in solvent (Solubility in solvent; listed as K04-0144C substance): Soluble in water, methanol and dimethyl sulfoxide; also recorded: Insoluble in acetone, chloroform and n-hexane; MIC (MRSA 70; MRSA 70, 37° C., 20 hours, read-out: MIC): ≤ 0.25 µg/mL; MIC (S. aureus FDA209P): 1 µg/mL (≈ 0.755 µM); MIC [3]: 0.5 µg/mL (≈ 0.378 µM); MIC (E. coli NIHJ JC-2): 8 µg/mL (≈ 6.04 µM); MIC (S. epidermidis IFO12648): 1 µg/mL (≈ 0.755 µM); MIC (E. faecalis ATCC21212): 0.5 µg/mL (≈ 0.378 µM); MIC (S. aureus 8325(pEP2104)): 0.5 µg/mL (≈ 0.378 µM)
